Data set [1] in a line: Observation of toxicity on injection (Experiments 1-3). The class given is in vivo, Male Sprague-Dawley rats. To be noted: rats. The procedure:
On day 15 after orchidectomy, rats were ether-anesthetized and the right external jugular vein exposed. Animals were then administered one of the following: testosterone-chemical delivery system (T-CDS1 or T-CDS2), testosterone (Steraloids Inc., Wilton, NH) or the vehicle, dimethyl sulfoxide (DMSO; Fisher Scientific, Fair Lawn, NJ). The testosterone-chemical delivery systems were given at doses equimolar to testosterone (25 mg/kg) so that T-CDS1 was administered at 35.5 mg/kg and rats received T-CDS2 at a dose of 45.1 mg/kg. DMSO was injected at a volume of 1 mL/kg. All compounds were administered by infusion over a 2 minute period. One milliliter of blood was withdrawn from the external jugular vein immediately before giving the drugs (1000 hours) and blood was sampled by cardiac puncture after 6, 12, 24 hours and on days 4 and 7. The sera were separated by centrifugation at 500 x g for 20 min at 4°C and stored at -20°C.
Two weeks after orchidectomy, rats were administered either T-CDS1, testosterone propionate (TP; Steraloids Inc.) or DMSO by means of intravenous infusion into the right external jugular vein in an effort to more effectively enhance the brain delivery of testosterone. It has been shown that slow infusion improves brain delivery of drugs attached to the chemical-delivery systems. […]

Data set [2] is described as follows: Solubilizing effect of a 50% w/w solution of HPCD on steroids and CDS. Particulars: 50% w/w aqueous hpcd. The protocol: An excess of E2-CDS was sonicated with an aqueous solution of the appropriate solubilizing agent for 30 minutes. The suspension was then centrifuged, filtered through 0.45 µm polyvinylidene difluoride (Millex-HV4, Millipore®) membranes and analyzed by HPLC. […] An estimation of the bulk equilibrium constant was obtained by correlating the millimolarity of E2-CDS solubilized and the millimolarity of the cyclodextrin added. This latter value was calculated using the average molecular weight of the isomeric mixture determined by mass spectroscopy. The solubilizing effect of a 50% w/w solution of HPCD was also examined for a series of steroids and dihydropyridines (CDS). These studies were carried out in a similar manner to those previously described.
For the CDS, the wavelength monitored was 360 nm while for estrogen 220 nm was used.
Separation was achieved on an Analytical Sciences, Inc. (ASI) 10 µm particle size, C18 reversed phase 30 cm x 3.9 mm i.d. analytical column. The flow rate was 1 mL/min, the compounds were detected at 360 nm and in all determinations the temperature was ambient. […] For the GABA-CDS1, a mobile phase consisting of 50:1:1:48 of the same components was required. […] Other compounds were assayed spectrophotometrically.

The nature of data set [3]: Preparation of solid freeze-dried HPCD complexes: degree of incorporation. The class given is physicochemical. The procedure: An excess of E2-CDS was added and the solution then was purged with helium. The resulting suspension was then sonicated for 30 minutes, filtered through a glass filter (ASTM 10-15M, Pyrex No. 36060) and freeze-dried overnight. Best results were obtained by hard-freezing the aqueous solution of the E2-CDS/HPCD complex for at least 10 hours before lyophilization. The degree of complex formation was determined by dissolving a small amount of the dry complex in methanol and then analyzing by high pressure liquid chromatography (HPLC).
An excess of E2-CDS or other CDS was added to a 50% w/w solution of HPCD. The suspension was sonicated for 30 minutes, filtered through 0.45 µm PVDF membranes and freeze-dried. The degree of incorporation was determined either spectrophotometrically or by HPLC. In some cases, the effect of solubilizing agents on the degree of incorporation was examined. This involved adding small amounts of polyoxyethylene 20 cetyl ether (Brij), polyoxyethylene sorbitan monooleate (Tween 80) or ethanol to the aqueous solution prior to lyophilization.
The retention time was 5.2 min. Other compounds were assayed spectrophotometrically.
The solution was degassed and the suspension was sonicated for 30 minutes, after which it was filtered and the filtrate was lyophilized. The dried filtrate contained 65.6 mg testosterone propionate or 29.6 mg T-CDS1 per gram of cyclodextrin complex. Compounds were analyzed for decomposition by thin-layer chromatography and ultraviolet absorption.

In brackets after ≈: the same amount, converted by molar mass.

For orientation: solubility means how much of the substance goes into solution per volume. A low value points to a poorly soluble substance.

Regarding `CN1C=CCC(C(=O)O[C@H]2CC[C@H]3[C@@H]4CCC5=CC(=O)CC[C@]5(C)[C@H]4CC[C@]23C)=C1` [T-CDS1, 17β-[(1,4-dihydro-1-methyl-3-pyridinylcarbonyl)oxy]androst-4-en-3-one], the toxicity on administration entry in data set [1] (DMSO vehicle, i.v. injection or infusion) is reported as “respiratory distress and/or death”; in data set [1] (complexed with HPCD, tail vein injection), “No respiratory distress or animal loss”. Besides, the solubility in data set [2] stood at 17.1 mg/mL (≈ 41.8 mM). Further, the “Amount of Drug in Dry Complex” value in data set [3] (freeze-dried complex from 50% w/w HPCD (ASDS 5.1)) turned out to be 29.0 mg/g. Besides, in data set [3] (lyophilized from 50% w/v aqueous HPCD, degree of substitution 5.1), the “drug content of dried filtrate” value is reported as 29.6 mg per gram of cyclodextrin co.

The values above are taken from patent EP0335545B2, “Pharmaceutical formulations for parenteral use” (UNIVERSITY OF FLORIDA, priority 1988, dated 1989).
